# Source: paper PMC7407272, “Induction of Lysosome Membrane Permeabilization as a Therapeutic Strategy to Target Pancreatic Cancer Stem Cells” (Cancers, 2020)
# How the values were obtained:
# Assay in all cases: KINOMEscan
# Assay type in all cases: binding
# Details in all cases: read-out: % Ctrl
# PRKCE = target: T1, PRKCE (Homo sapiens, UniProt Q02156)
# T1 construct: purchased DiscoveRx KINOMEscan
# INSRR = target: T2, INSRR (Homo sapiens, UniProt P14616)
# T2 construct: purchased DiscoveRx KINOMEscan
# SRPK2 = target: T3, SRPK2 (Homo sapiens, UniProt P78362)
# T3 construct: purchased DiscoveRx KINOMEscan
# ROCK2 = target: T4, ROCK2 (Homo sapiens, UniProt O75116)
# T4 construct: purchased DiscoveRx KINOMEscan
# VPS34 = target: T5, VPS34 (Homo sapiens, UniProt Q8NEB9)
# T5 construct: purchased DiscoveRx KINOMEscan
# PHKG1 = target: T6, PHKG1 (Homo sapiens, UniProt Q16816)
# T6 construct: purchased DiscoveRx KINOMEscan
# CDK8 = target: T7, CDK8 (Homo sapiens, UniProt P49336)
# T7 construct: purchased DiscoveRx KINOMEscan
# JAK1(JH2D.-pseudoK.) = target: T8, JAK1(JH2D.-pseudoK.) (Homo sapiens, UniProt P23458)
# T8 construct: JAK1(JH2D.-pseudoK.); purchased DiscoveRx KINOMEscan
# ABL1(E255K)-P = target: T9, ABL1(E255K)-P (Homo sapiens, UniProt P00519, E255K)
# T9 construct: purchased DiscoveRx KINOMEscan
# CAMKK1 = target: T10, CAMKK1 (Homo sapiens, UniProt Q8N5S9)
# T10 construct: purchased DiscoveRx KINOMEscan
# T10 sequence (Q8N5S9 whole entry): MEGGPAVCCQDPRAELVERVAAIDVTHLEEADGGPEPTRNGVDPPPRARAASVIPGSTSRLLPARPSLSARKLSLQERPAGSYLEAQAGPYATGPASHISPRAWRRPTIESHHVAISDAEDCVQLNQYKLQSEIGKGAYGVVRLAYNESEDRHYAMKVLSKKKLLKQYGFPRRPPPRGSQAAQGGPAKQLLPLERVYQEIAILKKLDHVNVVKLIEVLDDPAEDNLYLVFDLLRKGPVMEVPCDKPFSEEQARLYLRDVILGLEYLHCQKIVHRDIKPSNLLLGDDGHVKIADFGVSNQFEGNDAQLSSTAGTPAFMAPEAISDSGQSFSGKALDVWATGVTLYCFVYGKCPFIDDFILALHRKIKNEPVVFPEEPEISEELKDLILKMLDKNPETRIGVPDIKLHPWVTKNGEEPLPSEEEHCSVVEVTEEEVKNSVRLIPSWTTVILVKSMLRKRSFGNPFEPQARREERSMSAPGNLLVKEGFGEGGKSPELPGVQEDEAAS
# TBK1 = target: T11, TBK1 (Homo sapiens, UniProt Q9UHD2)
# T11 construct: purchased DiscoveRx KINOMEscan
# RPS6KA4(KD1-N-t.) = target: T12, RPS6KA4(KD1-N-t.) (Homo sapiens, UniProt O75676)
# T12 construct: RPS6KA4(KD1-N-t.); purchased DiscoveRx KINOMEscan
# EPHA7 = target: T13, EPHA7 (Homo sapiens, UniProt Q15375)
# T13 construct: purchased DiscoveRx KINOMEscan
# EGFR = target: T14, EGFR (Homo sapiens, UniProt P00533)
# T14 construct: purchased DiscoveRx KINOMEscan
# MET(Y1235D) = target: T15, MET(Y1235D) (Homo sapiens, UniProt P08581, Y1235D)
# T15 construct: purchased DiscoveRx KINOMEscan
# T15 sequence (P08581 25-1390 Y1235D): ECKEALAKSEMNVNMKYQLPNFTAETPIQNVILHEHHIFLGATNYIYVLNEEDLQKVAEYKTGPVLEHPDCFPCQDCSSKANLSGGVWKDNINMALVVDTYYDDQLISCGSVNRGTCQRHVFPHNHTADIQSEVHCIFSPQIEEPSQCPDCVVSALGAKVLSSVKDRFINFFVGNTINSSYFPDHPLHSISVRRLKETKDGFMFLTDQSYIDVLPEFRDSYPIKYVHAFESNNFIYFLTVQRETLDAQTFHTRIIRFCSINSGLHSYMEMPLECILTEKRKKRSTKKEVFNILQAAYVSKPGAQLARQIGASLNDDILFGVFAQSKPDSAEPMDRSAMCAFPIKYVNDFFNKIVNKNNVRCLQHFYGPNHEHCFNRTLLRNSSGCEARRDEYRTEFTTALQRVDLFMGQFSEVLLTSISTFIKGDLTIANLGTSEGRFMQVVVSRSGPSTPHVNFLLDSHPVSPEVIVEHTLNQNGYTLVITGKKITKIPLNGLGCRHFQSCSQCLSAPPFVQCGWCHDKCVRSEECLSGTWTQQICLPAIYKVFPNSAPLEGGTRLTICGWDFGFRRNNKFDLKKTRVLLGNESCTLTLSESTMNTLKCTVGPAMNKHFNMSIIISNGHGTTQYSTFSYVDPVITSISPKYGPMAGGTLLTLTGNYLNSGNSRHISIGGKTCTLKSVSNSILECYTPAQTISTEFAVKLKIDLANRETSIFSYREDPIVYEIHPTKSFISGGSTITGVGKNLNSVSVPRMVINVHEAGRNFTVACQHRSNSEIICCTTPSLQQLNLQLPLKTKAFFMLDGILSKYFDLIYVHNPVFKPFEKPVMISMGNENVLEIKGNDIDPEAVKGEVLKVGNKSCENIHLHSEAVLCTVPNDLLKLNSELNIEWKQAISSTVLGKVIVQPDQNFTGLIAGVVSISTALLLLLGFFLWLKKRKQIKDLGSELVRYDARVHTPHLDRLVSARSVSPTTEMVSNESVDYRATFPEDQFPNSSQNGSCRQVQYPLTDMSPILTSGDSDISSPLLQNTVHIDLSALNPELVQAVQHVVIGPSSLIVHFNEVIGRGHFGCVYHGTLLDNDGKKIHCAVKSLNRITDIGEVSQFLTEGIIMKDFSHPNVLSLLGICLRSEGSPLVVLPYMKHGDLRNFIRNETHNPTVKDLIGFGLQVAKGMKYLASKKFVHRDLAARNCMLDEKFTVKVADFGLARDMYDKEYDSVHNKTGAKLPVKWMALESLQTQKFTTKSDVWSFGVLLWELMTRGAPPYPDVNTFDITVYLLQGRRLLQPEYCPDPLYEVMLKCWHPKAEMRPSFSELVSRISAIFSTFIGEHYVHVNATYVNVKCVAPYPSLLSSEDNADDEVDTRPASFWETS
# RSK4(KD2-C-t.) = target: T16, RSK4(KD2-C-t.) (Homo sapiens, UniProt Q9UK32)
# T16 construct: RSK4(KD2-C-t.); purchased DiscoveRx KINOMEscan
# TAOK3 = target: T17, TAOK3 (Homo sapiens, UniProt Q9H2K8)
# T17 construct: purchased DiscoveRx KINOMEscan
# TYRO3 = target: T18, TYRO3 (Homo sapiens, UniProt Q06418)
# T18 construct: purchased DiscoveRx KINOMEscan
# ADCK3 = target: T19, ADCK3 (Homo sapiens, UniProt Q8NI60)
# T19 construct: purchased DiscoveRx KINOMEscan
# T19 sequence (Q8NI60 163-647): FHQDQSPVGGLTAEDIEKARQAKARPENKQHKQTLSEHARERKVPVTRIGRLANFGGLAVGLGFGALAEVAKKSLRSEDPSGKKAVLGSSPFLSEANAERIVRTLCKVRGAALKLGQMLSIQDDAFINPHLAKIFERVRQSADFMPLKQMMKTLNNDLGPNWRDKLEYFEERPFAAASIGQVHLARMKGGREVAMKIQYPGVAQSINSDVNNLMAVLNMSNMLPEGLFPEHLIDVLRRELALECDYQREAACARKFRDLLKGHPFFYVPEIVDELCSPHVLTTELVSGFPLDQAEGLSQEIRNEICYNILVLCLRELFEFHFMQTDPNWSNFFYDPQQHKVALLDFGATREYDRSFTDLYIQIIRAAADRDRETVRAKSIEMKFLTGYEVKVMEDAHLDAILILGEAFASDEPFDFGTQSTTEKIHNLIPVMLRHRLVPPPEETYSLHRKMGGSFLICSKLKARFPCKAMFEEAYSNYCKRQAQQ
# LRRK2(G2019S) = target: T20, LRRK2(G2019S) (Homo sapiens, UniProt Q5S007, G2019S)
# T20 construct: purchased DiscoveRx KINOMEscan
# KIT(V559D,V654A) = target: T21, KIT(V559D,V654A) (Homo sapiens, UniProt P10721, V559D/V654A)
# T21 construct: purchased DiscoveRx KINOMEscan
# SGK2 = target: T22, SGK2 (Homo sapiens, UniProt Q9HBY8)
# T22 construct: purchased DiscoveRx KINOMEscan
# PLK2 = target: T23, PLK2 (Homo sapiens, UniProt Q9NYY3)
# T23 construct: purchased DiscoveRx KINOMEscan
# YANK3 = target: T24, YANK3 (Homo sapiens, UniProt Q86UX6)
# T24 construct: purchased DiscoveRx KINOMEscan
# T24 sequence (Q86UX6 whole entry): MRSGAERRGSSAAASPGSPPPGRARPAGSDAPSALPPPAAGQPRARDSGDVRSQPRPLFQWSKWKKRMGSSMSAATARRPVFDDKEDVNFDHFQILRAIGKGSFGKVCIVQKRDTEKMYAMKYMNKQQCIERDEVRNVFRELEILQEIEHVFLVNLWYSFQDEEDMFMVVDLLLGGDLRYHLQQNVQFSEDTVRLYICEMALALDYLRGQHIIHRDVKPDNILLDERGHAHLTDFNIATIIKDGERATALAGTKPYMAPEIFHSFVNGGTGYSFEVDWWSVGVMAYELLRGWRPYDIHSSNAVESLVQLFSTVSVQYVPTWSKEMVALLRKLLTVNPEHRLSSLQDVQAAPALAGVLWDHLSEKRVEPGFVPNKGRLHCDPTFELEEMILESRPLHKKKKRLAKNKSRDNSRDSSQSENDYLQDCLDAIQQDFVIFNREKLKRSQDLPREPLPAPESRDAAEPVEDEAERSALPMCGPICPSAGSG
# HCK = target: T25, HCK (Homo sapiens, UniProt P08631)
# T25 construct: purchased DiscoveRx KINOMEscan
# DYRK2 = target: T26, DYRK2 (Homo sapiens, UniProt Q92630)
# T26 construct: purchased DiscoveRx KINOMEscan
# CAMK1B = target: T27, CAMK1B (Homo sapiens, UniProt Q6P2M8)
# T27 construct: purchased DiscoveRx KINOMEscan
# T27 sequence (Q6P2M8 whole entry): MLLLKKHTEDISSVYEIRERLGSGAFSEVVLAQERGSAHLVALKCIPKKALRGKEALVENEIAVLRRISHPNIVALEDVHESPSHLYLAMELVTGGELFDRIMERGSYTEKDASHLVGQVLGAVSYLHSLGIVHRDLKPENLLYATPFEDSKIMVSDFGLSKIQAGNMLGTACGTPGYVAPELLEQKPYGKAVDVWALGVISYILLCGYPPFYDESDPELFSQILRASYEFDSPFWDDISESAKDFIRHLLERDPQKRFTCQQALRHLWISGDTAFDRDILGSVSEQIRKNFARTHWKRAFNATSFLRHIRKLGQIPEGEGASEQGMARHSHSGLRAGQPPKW
# MLK1 = target: T28, MLK1 (Homo sapiens, UniProt P80192)
# T28 construct: purchased DiscoveRx KINOMEscan
# T28 sequence (P80192 whole entry): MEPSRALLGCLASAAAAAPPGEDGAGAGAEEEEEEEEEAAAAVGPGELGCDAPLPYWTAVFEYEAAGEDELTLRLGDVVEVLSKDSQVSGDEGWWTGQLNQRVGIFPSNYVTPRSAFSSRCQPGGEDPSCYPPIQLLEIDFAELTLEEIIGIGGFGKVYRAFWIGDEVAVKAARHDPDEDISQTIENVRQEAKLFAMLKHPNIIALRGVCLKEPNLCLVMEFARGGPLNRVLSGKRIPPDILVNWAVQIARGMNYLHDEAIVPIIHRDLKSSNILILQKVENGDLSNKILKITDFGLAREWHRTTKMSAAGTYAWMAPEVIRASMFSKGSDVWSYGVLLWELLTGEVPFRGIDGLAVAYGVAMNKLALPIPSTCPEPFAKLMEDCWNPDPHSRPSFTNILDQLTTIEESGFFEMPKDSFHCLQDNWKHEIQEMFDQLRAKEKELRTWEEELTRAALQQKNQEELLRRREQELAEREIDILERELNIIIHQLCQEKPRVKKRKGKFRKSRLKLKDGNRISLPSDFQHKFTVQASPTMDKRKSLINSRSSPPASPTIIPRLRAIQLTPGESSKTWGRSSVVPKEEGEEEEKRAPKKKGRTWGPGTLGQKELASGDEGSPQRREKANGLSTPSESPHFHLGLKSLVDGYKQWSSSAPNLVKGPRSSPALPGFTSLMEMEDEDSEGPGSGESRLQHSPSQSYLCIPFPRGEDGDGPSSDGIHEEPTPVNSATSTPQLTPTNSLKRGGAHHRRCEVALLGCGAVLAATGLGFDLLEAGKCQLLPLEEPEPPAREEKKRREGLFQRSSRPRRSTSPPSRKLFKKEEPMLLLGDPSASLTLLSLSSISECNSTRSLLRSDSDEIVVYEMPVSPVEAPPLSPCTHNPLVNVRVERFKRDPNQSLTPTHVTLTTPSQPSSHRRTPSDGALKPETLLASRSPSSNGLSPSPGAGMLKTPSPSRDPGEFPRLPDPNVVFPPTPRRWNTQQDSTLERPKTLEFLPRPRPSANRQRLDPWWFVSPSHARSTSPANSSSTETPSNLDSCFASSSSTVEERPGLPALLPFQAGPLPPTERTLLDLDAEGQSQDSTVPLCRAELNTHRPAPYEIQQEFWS
# FGFR4 = target: T29, FGFR4 (Homo sapiens, UniProt P22455)
# T29 construct: purchased DiscoveRx KINOMEscan
# ABL2 = target: T30, ABL2 (Homo sapiens, UniProt P42684)
# T30 construct: purchased DiscoveRx KINOMEscan
# CAMK1G = target: T31, CAMK1G (Homo sapiens, UniProt Q96NX5)
# T31 construct: purchased DiscoveRx KINOMEscan
# PRKCQ = target: T32, PRKCQ (Homo sapiens, UniProt Q04759)
# T32 construct: purchased DiscoveRx KINOMEscan
# ABL1(M351T)-P = target: T33, ABL1(M351T)-P (Homo sapiens, UniProt P00519, M351T)
# T33 construct: purchased DiscoveRx KINOMEscan
# MAP3K4 = target: T34, MAP3K4 (Homo sapiens, UniProt Q9Y6R4)
# T34 construct: purchased DiscoveRx KINOMEscan
# NEK11 = target: T35, NEK11 (Homo sapiens, UniProt Q8NG66)
# T35 construct: purchased DiscoveRx KINOMEscan
# VEGFR2 = target: T36, VEGFR2 (Homo sapiens, UniProt P35968)
# T36 construct: purchased DiscoveRx KINOMEscan
# CDK4-cyclinD3 = target: T37, CDK4-cyclinD3 (Homo sapiens, UniProt P11802)
# T37 construct: purchased DiscoveRx KINOMEscan
# BUB1 = target: T38, BUB1 (Homo sapiens, UniProt O43683)
# T38 construct: purchased DiscoveRx KINOMEscan
# WNK3 = target: T39, WNK3 (Homo sapiens, UniProt Q9BYP7)
# T39 construct: purchased DiscoveRx KINOMEscan
# RIPK4 = target: T40, RIPK4 (Homo sapiens, UniProt P57078)
# T40 construct: purchased DiscoveRx KINOMEscan
# PIK3CA(E542K) = target: T41, PIK3CA(E542K) (Homo sapiens, UniProt P42336, E542K)
# T41 construct: purchased DiscoveRx KINOMEscan
# ERBB2 = target: T42, ERBB2 (Homo sapiens, UniProt P04626)
# T42 construct: purchased DiscoveRx KINOMEscan
# T1 sequence (Q02156 whole entry): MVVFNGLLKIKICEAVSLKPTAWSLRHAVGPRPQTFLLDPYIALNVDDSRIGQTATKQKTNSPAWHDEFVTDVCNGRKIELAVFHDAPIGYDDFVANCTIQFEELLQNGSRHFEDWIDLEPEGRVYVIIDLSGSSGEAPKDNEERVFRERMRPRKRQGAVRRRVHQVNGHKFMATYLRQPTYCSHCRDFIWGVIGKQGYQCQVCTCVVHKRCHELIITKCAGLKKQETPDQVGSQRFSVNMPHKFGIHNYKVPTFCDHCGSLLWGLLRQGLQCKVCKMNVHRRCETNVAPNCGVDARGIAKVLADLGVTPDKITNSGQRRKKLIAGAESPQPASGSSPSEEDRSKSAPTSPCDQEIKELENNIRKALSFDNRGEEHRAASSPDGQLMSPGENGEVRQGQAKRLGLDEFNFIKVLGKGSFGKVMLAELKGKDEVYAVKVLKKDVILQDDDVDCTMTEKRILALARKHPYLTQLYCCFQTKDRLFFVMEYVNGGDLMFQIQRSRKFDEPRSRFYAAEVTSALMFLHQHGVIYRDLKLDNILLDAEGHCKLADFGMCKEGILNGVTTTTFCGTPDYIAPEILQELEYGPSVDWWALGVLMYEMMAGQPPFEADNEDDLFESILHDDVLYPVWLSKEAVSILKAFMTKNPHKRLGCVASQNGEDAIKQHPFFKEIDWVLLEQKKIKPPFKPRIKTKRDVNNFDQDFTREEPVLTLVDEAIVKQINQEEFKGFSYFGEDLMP
smiles,measurement,setting,value
CN1CCC(CNc2ccc3ncc(C(=O)Nc4cccc(OC(F)(F)F)c4)n3n2)CC1 [Cpd 2],remaining binding at 1 µM,PRKCE,70%
same,remaining binding at 1 µM,INSRR,94%
same,remaining binding at 1 µM,SRPK2,94%
same,remaining binding at 1 µM,ROCK2,94%
same,remaining binding at 1 µM,VPS34,75%
same,remaining binding at 1 µM,PHKG1,100%
same,remaining binding at 1 µM,CDK8,58%
same,remaining binding at 1 µM,JAK1(JH2D.-pseudoK.),100%
same,remaining binding at 1 µM,ABL1(E255K)-P,85%
same,remaining binding at 1 µM,CAMKK1,94%
same,remaining binding at 1 µM,TBK1,100%
same,remaining binding at 1 µM,RPS6KA4(KD1-N-t.),92%
same,remaining binding at 1 µM,EPHA7,100%
same,remaining binding at 1 µM,EGFR,94%
same,remaining binding at 1 µM,MET(Y1235D),93%
same,remaining binding at 1 µM,RSK4(KD2-C-t.),84%
same,remaining binding at 1 µM,TAOK3,99%
same,remaining binding at 1 µM,TYRO3,89%
same,remaining binding at 1 µM,ADCK3,100%
same,remaining binding at 1 µM,LRRK2(G2019S),93%
same,remaining binding at 1 µM,"KIT(V559D,V654A)",91%
same,remaining binding at 1 µM,SGK2,100%
same,remaining binding at 1 µM,PLK2,91%
same,remaining binding at 1 µM,YANK3,99%
same,remaining binding at 1 µM,HCK,96%
same,remaining binding at 1 µM,DYRK2,86%
same,remaining binding at 1 µM,CAMK1B,97%
same,remaining binding at 1 µM,MLK1,95%
same,remaining binding at 1 µM,FGFR4,100%
same,remaining binding at 1 µM,ABL2,96%
same,remaining binding at 1 µM,CAMK1G,92%
same,remaining binding at 1 µM,PRKCQ,55%
same,remaining binding at 1 µM,ABL1(M351T)-P,100%
same,remaining binding at 1 µM,MAP3K4,86%
same,remaining binding at 1 µM,NEK11,79%
same,remaining binding at 1 µM,VEGFR2,100%
same,remaining binding at 1 µM,CDK4-cyclinD3,100%
same,remaining binding at 1 µM,BUB1,62%
same,remaining binding at 1 µM,WNK3,99%
same,remaining binding at 1 µM,RIPK4,96%
same,remaining binding at 1 µM,PIK3CA(E542K),92%
same,remaining binding at 1 µM,ERBB2,88%
